# Measured values: patent EP2939983A1, “Titanium dioxide-catalysed oxidation method” (Sistiana Inversiones S.L., priority 2014, dated 2015)
# Key:
# [1] = Rhodamine B degradation kinetics with TiO2 catalyst, H2O2 and acid in the absence of light
# Text: The walls of a beaker (Ǿ = 10 cm) were covered with aluminum foil to prevent any light exposure to the inside. A magnetic stirrer was introduced in a smaller beaker (Ǿ = 6.5 cm), which was then covered on the top with parafilm and a small hole was punched thereon. The smaller beaker was introduced concentrically into the larger one. To immobilize the inner beaker, a foam was placed between the walls of the two vessels. A cover of the same foam (Ǿ = 10 cm, 1.5 cm thick) was placed on the top of the larger beaker. In the cover, a hole (Ǿ = 0.5 cm) close to the inside wall of the inner beaker facilitated sample collection in the vortex formed during the agitation of the reaction mixture. A second hole situated on the opposite side of the first one was punched in order to facilitate pH measurements.
# The catalytic reactor was placed on the stirrer (VMS-C4, VWR) at around 750 rpm. Then, the inner beaker was filled with the help of a funnel with the required amount of TiO2. Immediately afterwards, the appropriate amount of 9.8 M H2O2 and deionised water, in each case, for a total volume of 20 mL, was introduced. The mixture was stirred for 1 minute, and 20 mL of the required concentration of Rhodamine B were then added. In the cases where an acid was employed, the corresponding amount of acid to achieve a particular pH was introduced in the reaction mixture before the addition of Rhodamine B. After 3 minutes stirring, an aliquot of 1 mL was taken through a plastic Pasteur pipette and was introduced in an Eppendorf tube (1.5 mL). The sample was centrifugated (Mikro 120, Hettich Zentrifugen) at 14000 rpm for 1 minute. The supernatant was centrifugated again under the same conditions and the remaining supernatant was placed in a 1.5 mL cuvette for analysis in a spectrophotometer (Du 730, Beckman Coulter). […] Finally, the TiO2 and the liquid were reintroduced into the inner beaker. The procedure, starting with the 1 mL aliquot extraction, was repeated (at least) every 3 min for a maximum of 2 h. The experiment was repeated 4 times for every imposed condition.
# Linear regressions were conducted with the obtained data. […] The kinetic constant of the reaction was the parameter used to compare the oxidative capacity of the different oxidation conditions in the method of the invention.
# [2] = in water; cited from earlier work
# [3] = 5% H2O2, 10g/L TiO2 (aeroxide P90), pH=3 (HCl), 0.025 mM Rhodamine B; reaction order 0.66
# [4] = 0.025 mM Rhodamine B, 30g/L of TiO2 (aeroxide P90), 5% H2O2 solution
# [5] = 0.025 mM Rhodamine B, 30g/L of TiO2 (aeroxide P90), 5% H2O2 solution, pH 2.0
# [6] = 0.025 mM Rhodamine B, 30g/L of TiO2 (aeroxide P90), 5% H2O2 solution, pH 2.0, absence of light
# [7] = 0.050 mM Rhodamine B, 10g/L of TiO2 (aeroxide P90), 5% H2O2 solution, pH of 2
compound,measurement,setting,value
"O=CO [Formic, formic acid, reference compound]",Rate constants for degradation kinetics (k544/min^-1),[1]; pH 2,0.0263 ± 0.0035 min⁻¹
"Cl [Hydrochloric, hydrochloric acid]","Rate constants for degradation kinetics (k554/min^-1), pH 1.5",[1],0.3370±0.0990 min^-1
same,"Rate constants for degradation kinetics (k554/min^-1), pH 2.0",[1]; pH 2,0.1260±0.0173 min^-1
"[O-][Cl+3]([O-])([O-])O [Perchloric, perchloric acid]","Rate constants for degradation kinetics (k554/min^-1), pH 1.5",[1]; [4],0.3550±0.1180 min^-1
same,"Rate constants for degradation kinetics (k554/min^-1), pH 2.0",[1]; [5],0.1194±0.0095 min^-1
same,Rate constants for degradation kinetics (k544/min^-1),[1]; [6],0.1194 ± 0.0095 min⁻¹
same,Rate constants for degradation kinetics (k544/min^-1),[1]; [7],0.0318 ± 0.0021 min⁻¹
"O=S(=O)(O)O [Sulfuric, sulfuric acid]","Rate constants for degradation kinetics (k554/min^-1), pH 1.5",[1]; [4],0.2360±0.0430 min^-1
same,"Rate constants for degradation kinetics (k554/min^-1), pH 2.0",[1]; [5],0.1124±0.0112 min^-1
same,Rate constants for degradation kinetics (k544/min^-1),[1]; [6],0.1124 ± 0.0112 min⁻¹
same,Rate constants for degradation kinetics (k544/min^-1),[1]; [7],0.0293 ± 0.0021 min⁻¹
[O]=[Cr](=[O])([OH])[OH] [chromic acid],pKa,[2],-0.1
O=O [oxygen],kinetic constant greater than that of the reaction not supplied with oxygen,[3],about 15%
O=S(O)O [sulfurous acid],pKa,[2],1.9
O=C(O)C(F)(F)F [trifluoroacetic acid],pKa,[2],-0.25
